Laboratory results as given in ChEMBL document CHEMBL2440076, “New triarylpyrazoles as broad-spectrum anticancer agents: design, synthesis, and biological evaluation” (Eur J Med Chem, 2013).

Key:
[1] = test system: OVCAR-3; assay: Growth inhibition of human OVCAR3 cells assessed as cell growth at 10^-6 M after 48 hrs by sulforhodamine B assay; type: functional; settings: OVCAR-3, 48 h, read-out: Activity
[2] = Growth inhibition of human NCI-ADR-RES cells assessed as cell growth at 10^-4 M after 48 hrs by sulforhodamine B assay; type: functional; settings: read-out: Activity

COc1cc(-c2nn(-c3cccc(NC(=O)c4ccccc4)c3)cc2-c2ccncc2)ccc1Cl
growth at 1 µM [1]: 4%

COc1cc(-c2nn(-c3cccc(NC(=O)c4ccc(N5CCOCC5)c(C(F)(F)F)c4)c3)cc2-c2ccncc2)ccc1Cl
growth at 100 µM [2]: 2%
